Experimental data from patent US20250179032A1, “HETEROCYCLIC INHIBITORS OF GLUT9 FOR TREATMENT OF DISEASE” (HORIZON THERAPEUTICS IRELAND DAC, priority 2022, published 2025).
Where two headings read alike, the source gives them in different places.

Biological target: T1, H. sapiens SLC2A9 variant 2 (GLUT9B) (Homo sapiens, UniProt Q9NRM0)
T1 sequence (Q9NRM0 1-511 isoform Q9NRM0-2): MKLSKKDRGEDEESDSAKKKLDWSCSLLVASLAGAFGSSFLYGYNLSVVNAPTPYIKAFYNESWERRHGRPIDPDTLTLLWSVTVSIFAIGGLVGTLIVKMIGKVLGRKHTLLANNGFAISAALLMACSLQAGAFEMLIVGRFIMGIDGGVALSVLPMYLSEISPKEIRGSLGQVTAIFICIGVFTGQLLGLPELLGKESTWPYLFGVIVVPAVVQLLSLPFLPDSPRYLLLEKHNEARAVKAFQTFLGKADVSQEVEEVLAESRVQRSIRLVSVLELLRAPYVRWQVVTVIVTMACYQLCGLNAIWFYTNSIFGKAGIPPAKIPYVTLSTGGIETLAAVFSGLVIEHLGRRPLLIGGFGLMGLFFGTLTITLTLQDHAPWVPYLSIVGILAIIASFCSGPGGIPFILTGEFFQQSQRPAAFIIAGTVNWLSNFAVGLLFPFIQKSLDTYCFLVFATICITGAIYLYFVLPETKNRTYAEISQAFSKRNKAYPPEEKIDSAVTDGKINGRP
Experiment: GLUT9 functional assay: uric acid uptake in HEK293T cells, allantoin formation by MS/MS as proxy of GLUT9B inhibition
Format: cell-based
Conditions: HEK293T cells stably expressing GLUT9B and transiently A. oryzae uricase, uric acid 0.3 mM, 37° C.
Procedure, shortened: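 Inhibition of GLUT9B-mediated urate uptake read as reduced allantoin formation, measured by MS/MS against allantoin standards in HEK293T matrix with log-logistic fitting. Stable GLUT9B HEK293T cells carrying transfected A. oryzae uricase were incubated 15 or 60 min at 37° C with uric acid at Km (0.3 mM), pH 7.4 gluconate buffer.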

[1] = 15 minute assay, read-out: 15 min IC50
[2] = 60 minute assay, read-out: 60 min IC50

IC50 [1]	IC50 [2]	Structure (SMILES)
0.5 to 2 µM		CCCCc1cnc(-c2ccc(OC)cc2)c(N2CCc3c(C(=O)O)csc3C2)n1 [Compound 41, 6-(6-butyl-3-(4-methoxyphenyl)pyrazin-2-yl)-4,5,6,7-tetrahydrothieno[2,3-c]pyridine-3-carboxylic acid]
0.5 to 2 µM		O=C(O)C1C[C@@H]2CN(c3nc(CCC(F)(F)F)cnc3-c3ccc4occc4c3)C[C@@H]2C1 (stereo partly drawn) [Compound 102, (3aR,6aS)-2-(3-(benzofuran-5-yl)-6-(3,3,3-trifluoropropyl)pyrazin-2-yl)octahydrocyclopenta[c]pyrrole-5-carboxylic acid]
0.5 to 2 µM		O=C(O)C1CCN(c2nc(CCC(F)(F)C(F)(F)F)cnc2-c2ccc(OCC3CC3)cc2)CC1 [Compound 154, 1-(3-(4-(cyclopropylmethoxy)phenyl)-6-(3,3,4,4,4-pentafluorobutyl)pyrazin-2-yl)piperidine-4-carboxylic acid]
	< 0.5 µM	COCCCc1cnc(-c2ccc3c(c2)OCO3)c(N2CCC(C(=O)O)CC2)c1 [Compound 191, 1-(2-(benzo[d][1,3]dioxol-5-yl)-5-(3-Methoxypropyl)Pyridin-3-yl)piperidine-4-carboxylic acid]
0.5 to 2 µM		CCCCc1cnc(-c2ccc(OC)cc2)c(-c2ccc3c(c2)CNC3=O)c1 [Compound 27, 5-(5-butyl-2-(4-methoxyphenyl)pyridin-3-yl)isoindolin-1-one]
0.5 to 2 µM		COCCN(C)c1ccc(-c2ncc(CCC(F)(F)F)nc2N2CCC(C(=O)O)CC2)cc1 [Compound 104, 1-(3-(4-((2-methoxyethyl)(methyl)amino)phenyl)-6-(3,3,3-trifluoropropyl)pyrazin-2-yl)piperidine-4-carboxylic acid]
	< 0.5 µM	COCCCc1cnc(-c2cc3ccoc3c(F)c2F)c(N2CCC(C(=O)O)CC2)n1 [Compound 223, 1-(3-(6,7-difluorobenzofuran-5-yl)-6-(3-methoxypropyl)pyrazin-2-yl)piperidine-4-carboxylic acid]
< 0.5 µM		CCCCc1cnc(-c2ccc(OC)cc2)c(N2CCC(C(=O)NS(C)(=O)=O)CC2)n1 [Compound 11, 1-(6-Butyl-3-(4-Methoxyphenyl)Pyrazin-2-yl)-N-(Methylsulfonyl)Piperidine-4-carboxamide]
> 2 µM		COCCOc1ccc(-c2ncc(COCC(F)(F)F)nc2N2CCC(c3nn[nH]n3)CC2)cc1 [Compound 68, 3-(4-(2H-tetrazol-5-yl)piperidin-1-yl)-2-(4-(2-methoxyethoxy)phenyl)-5-((2,2,2-trifluoroethoxy)methyl)pyrazine]
> 2 µM		CCCCc1cnc(-c2ccc(OC)cc2)c(-c2coc(C(=O)O)c2)c1 [Compound 22, 4-(5-butyl-2-(4-methoxyphenyl)pyridin-3-yl)furan-2-carboxylic acid]
0.5 to 2 µM		COCCOc1ccc(-c2ncc(CCC(C)(F)F)nc2N2CCC(C(=O)O)CC2)cc1 [Compound 137, 1-(6-(3,3-difluorobutyl)-3-(4-(2-methoxyethoxy)phenyl)pyrazin-2-yl)piperidine-4-carboxylic acid]
	> 2 µM	COCCCc1cnc(-c2ccc3c(c2)CCS3(=O)=O)c(N2CCC(C(=O)O)CC2)n1 [Compound 233, 1-(3-(1,1-dioxido-2,3-dihydrobenzo[b]thiophen-5-yl)-6-(3-methoxypropyl)pyrazin-2-yl)piperidine-4-carboxylic acid]
0.5 to 2 µM	> 2 µM	CCC(F)(F)Cc1cnc(-c2ccc(OCC3CC3)cc2)c(N2CCC(C(=O)O)CC2)n1 [Compound 150, 1-(3-(4-(cyclopropylmethoxy)phenyl)-6-(2,2-difluorobutyl)pyrazin-2-yl)piperidine-4-carboxylic acid]
0.5 to 2 µM		O=C(O)C1(O)CCN(c2nc(CCCC(F)(F)F)cnc2-c2ccc3occc3c2)CC1 [Compound 174, 1-(3-(benzofuran-5-yl)-6-(4,4,4-trifluorobutyl)pyrazin-2-yl)-4-hydroxypiperidine-4-carboxylic acid]
< 0.5 µM		O=C(O)C1CCN(c2nc(CCCC(F)F)cnc2-c2ccc3c(c2)OCO3)CC1 [Compound 144, 1-(3-(benzo[d][1,3]dioxol-5-yl)-6-(4,4-difluorobutyl)pyrazin-2-yl)piperidine-4-carboxylic acid]
